In publication PMC5218480 (PLoS ONE, 2017):

System: MV-4-11 cells
Assay: Gene expression microarray analysis (Affymetrix PrimeView) and GSEA
Assay type: cell-based, human
Design: RFU PODN (11730768_x_at) / Fold change /veh PODN (11730768_x_at) / RFU LINC00158 (11744669_a_at) / Fold change /veh LINC00158 (11744669_a_at) / RFU DUSP10 (11751237_a_at) / Fold change /veh DUSP10 (11751237_a_at) / RFU ID3 (11757404_x_at) / Fold change /veh ID3 (11757404_x_at) / RFU PLEKHG5 (11737974_s_at) / Fold change /veh PLEKHG5 (11737974_s_at) / RFU LRRC4B (11730491_at) / Fold change /veh LRRC4B (11730491_at) / RFU GIMAP4 (11747438_a_at) / Fold change /veh GIMAP4 (11747438_a_at) / RFU KRT8 (11758183_x_at) / Fold change /veh KRT8 (11758183_x_at) / RFU CNN1 (11734310_a_at) / Fold change /veh CNN1 (11734310_a_at) / RFU VPS37D (11726825_at) / Fold change /veh VPS37D (11726825_at) / RFU C10orf10 (11716522_x_at) / Fold change /veh C10orf10 (11716522_x_at) / RFU KIR2DL2 /// KIR2DL4 /// KIR2DL5A /// KIR2DL5B /// KIR2DS1 /// KIR2DS2 /// KIR2DS3 /// KIR2DS4 /// KIR3DL3 /// KIR3DL3 /// KIR3DS1 (11738374_at) / Fold change /veh KIR2DL2 /// KIR2DL4 /// KIR2DL5A /// KIR2DL5B /// KIR2DS1 /// KIR2DS2 /// KIR2DS3 /// KIR2DS4 /// KIR3DL3 /// KIR3DL3 /// KIR3DS1 (11738374_at) / RFU C1QL1 (11718748_at) / Fold change /veh C1QL1 (11718748_at) / RFU TMPRSS4 (11747572_a_at) / Fold change /veh TMPRSS4 (11747572_a_at) / RFU HAMP (11756126_x_at) / Fold change /veh HAMP (11756126_x_at) / RFU RNFT2 (11725882_a_at) / Fold change /veh RNFT2 (11725882_a_at) / RFU NR4A2 (11747474_a_at) / Fold change /veh NR4A2 (11747474_a_at) / RFU ABCC12 (11746883_a_at) / Fold change /veh ABCC12 (11746883_a_at) / RFU TMEM136 (11760407_x_at) / Fold change /veh TMEM136 (11760407_x_at) / RFU CLDN22 /// WWC2 (11732394_at) / Fold change /veh CLDN22 /// WWC2 (11732394_at) / RFU HLA-DPB1 (11760878_x_at) / Fold change /veh HLA-DPB1 (11760878_x_at) / RFU SPINT1 (11716480_a_at) / Fold change /veh SPINT1 (11716480_a_at) / RFU GAP43 (11754022_s_at) / Fold change /veh GAP43 (11754022_s_at) / RFU A4GNT (11735810_at) / Fold change /veh A4GNT (11735810_at) / RFU PRB3 (11715151_x_at) / Fold change /veh PRB3 (11715151_x_at) / RFU TUBB4B (11761932_at) / Fold change /veh TUBB4B (11761932_at) / RFU CAPN14 (11732068_a_at) / Fold change /veh CAPN14 (11732068_a_at) / RFU TMCC2 (11721928_a_at) / Fold change /veh TMCC2 (11721928_a_at) / RFU IRGQ (11745062_a_at) / Fold change /veh IRGQ (11745062_a_at) / RFU FAM174B (11720279_a_at) / Fold change /veh FAM174B (11720279_a_at) / RFU TMPRSS4 (11748680_a_at) / Fold change /veh TMPRSS4 (11748680_a_at) / RFU FAM212B (11763350_a_at) / Fold change /veh FAM212B (11763350_a_at) / RFU PLEKHG5 (11743358_a_at) / Fold change /veh PLEKHG5 (11743358_a_at) / RFU ZSCAN30 (11745921_a_at) / Fold change /veh ZSCAN30 (11745921_a_at) / RFU CMKLR1 (11741424_a_at) / Fold change /veh CMKLR1 (11741424_a_at) / RFU LOC101060620 /// MAPK8IP1 (11723275_at) / Fold change /veh LOC101060620 /// MAPK8IP1 (11723275_at) / RFU SPTSSB (11747773_x_at) / Fold change /veh SPTSSB (11747773_x_at) / RFU PRSS12 (11739890_at) / Fold change /veh PRSS12 (11739890_at) / RFU BIN1 (11741810_x_at) / Fold change /veh BIN1 (11741810_x_at) / RFU WNT11 (11732464_a_at) / Fold change /veh WNT11 (11732464_a_at) / RFU C10orf10 (11716521_a_at) / Fold change /veh C10orf10 (11716521_a_at) / RFU C5orf56 (11738089_at) / Fold change /veh C5orf56 (11738089_at) / RFU CYB561 (11721691_x_at) / Fold change /veh CYB561 (11721691_x_at) / RFU ANKRD19P (11752326_a_at) / Fold change /veh ANKRD19P (11752326_a_at) / RFU OR2T12 /// OR2T33 /// OR2T8 (11738714_s_at) / Fold change /veh OR2T12 /// OR2T33 /// OR2T8 (11738714_s_at) / RFU VCAN (11748164_a_at) / Fold change /veh VCAN (11748164_a_at) / RFU JSRP1 (11732532_at) / Fold change /veh JSRP1 (11732532_at) / RFU KRTAP10-11 (11738290_x_at) / Fold change /veh KRTAP10-11 (11738290_x_at) / RFU MYO3A (11730013_a_at) / Fold change /veh MYO3A (11730013_a_at) / RFU EBF3 (11725865_a_at) / Fold change /veh EBF3 (11725865_a_at) / RFU CAMK2N1 (11719241_x_at) / Fold change /veh CAMK2N1 (11719241_x_at) / RFU C5orf56 (11738088_a_at) / Fold change /veh C5orf56 (11738088_a_at) / RFU OLFML3 (11715873_a_at) / Fold change /veh OLFML3 (11715873_a_at) / RFU LOC100653217 /// NTM (11731650_a_at) / Fold change /veh LOC100653217 /// NTM (11731650_a_at) / RFU MAPK11 (11762145_a_at) / Fold change /veh MAPK11 (11762145_a_at) / RFU FIZ1 (11724087_x_at) / Fold change /veh FIZ1 (11724087_x_at) / RFU OASL (11726364_x_at) / Fold change /veh OASL (11726364_x_at) / RFU SOX15 (11748057_x_at) / Fold change /veh SOX15 (11748057_x_at) / RFU CD79A (11719716_a_at) / Fold change /veh CD79A (11719716_a_at) / RFU HIST1H1D (11736915_at) / Fold change /veh HIST1H1D (11736915_at) / RFU CASKIN2 (11723855_a_at) / Fold change /veh CASKIN2 (11723855_a_at) / RFU LOC730098 (11760151_x_at) / Fold change /veh LOC730098 (11760151_x_at) / RFU OR4N2 (11742367_at) / Fold change /veh OR4N2 (11742367_at) / RFU PRRT2 (11749266_a_at) / Fold change /veh PRRT2 (11749266_a_at) / RFU SNX32 (11753110_a_at) / Fold change /veh SNX32 (11753110_a_at) / RFU CDHR5 (11726645_a_at) / Fold change /veh CDHR5 (11726645_a_at) / RFU RCAN1 (11760418_a_at) / Fold change /veh RCAN1 (11760418_a_at) / RFU FAM167A (11723789_a_at) / Fold change /veh FAM167A (11723789_a_at) / RFU FAM26E (11764081_at) / Fold change /veh FAM26E (11764081_at) / RFU ISYNA1 (11749810_s_at) / Fold change /veh ISYNA1 (11749810_s_at) / RFU ACY1 (11761880_at) / Fold change /veh ACY1 (11761880_at) / RFU 11764098_at / Fold change /veh 11764098_at / RFU SAMD14 (11745864_x_at) / Fold change /veh SAMD14 (11745864_x_at) / RFU NPB (11741838_a_at) / Fold change /veh NPB (11741838_a_at) / RFU TMPRSS6 (11731388_a_at) / Fold change /veh TMPRSS6 (11731388_a_at) / RFU KRTAP10-2 (11738614_at) / Fold change /veh KRTAP10-2 (11738614_at) / RFU ARHGAP8 /// PRR5-ARHGAP8 (11727945_x_at) / Fold change /veh ARHGAP8 /// PRR5-ARHGAP8 (11727945_x_at) / RFU KRTAP5-7 /// NADSYN1 (11734609_at) / Fold change /veh KRTAP5-7 /// NADSYN1 (11734609_at) / RFU RASL12 (11751679_a_at) / Fold change /veh RASL12 (11751679_a_at) / RFU CDKN2B (11736163_a_at) / Fold change /veh CDKN2B (11736163_a_at) / RFU PRF1 (11729649_at) / Fold change /veh PRF1 (11729649_at) / RFU, ZNF638 /// ZNF638-IT1 / Fold change vs veh, ZNF638 /// ZNF638-IT1 / RFU, PANK3 / Fold change vs veh, PANK3 / RFU, SH3YL1 / Fold change vs veh, SH3YL1 / RFU, ZEB2 / Fold change vs veh, ZEB2 / RFU, NRIP1 / Fold change vs veh, NRIP1 / RFU, PTTG1IP / Fold change vs veh, PTTG1IP / RFU, CAPN2 / Fold change vs veh, CAPN2 / RFU, MED14 / Fold change vs veh, MED14 / RFU, SNORA58 / Fold change vs veh, SNORA58 / RFU, C1orf63 / Fold change vs veh, C1orf63 / RFU, LRRFIP1 / Fold change vs veh, LRRFIP1 / RFU, NDUFAF7 / Fold change vs veh, NDUFAF7 / RFU, SLC12A2 / Fold change vs veh, SLC12A2 / RFU, IBTK / Fold change vs veh, IBTK / RFU, ESF1 / Fold change vs veh, ESF1 / Fold change vs veh, TMEM50B / RFU, TAOK1 / Fold change vs veh, TAOK1 / RFU, ACBD3 / Fold change vs veh, ACBD3 / RFU, TMA16 / Fold change vs veh, TMA16 / RFU, RWDD3 / Fold change vs veh, RWDD3 / RFU, BCAT1 / Fold change vs veh, BCAT1 / RFU, EDEM3 / Fold change vs veh, EDEM3 / RFU, TMEM33 / Fold change vs veh, TMEM33 / RFU, WDR75 / Fold change vs veh, WDR75 / RFU, AHCTF1 / Fold change vs veh, AHCTF1 / RFU, TFRC / Fold change vs veh, TFRC / RFU, ZDHHC17 / Fold change vs veh, ZDHHC17 / RFU, NOM1 / Fold change vs veh, NOM1 / RFU, ARL8B / Fold change vs veh, ARL8B / RFU, ZBTB11 / Fold change vs veh, ZBTB11 / RFU, TAMM41 / Fold change vs veh, TAMM41 / RFU, KIAA1704 /// LOC100996395 / Fold change vs veh, KIAA1704 /// LOC100996395 / RFU, ING1 / Fold change vs veh, ING1 / RFU, TRMT61B / Fold change vs veh, TRMT61B / RFU, FUBP3 / Fold change vs veh, FUBP3 / RFU, TP53 / Fold change vs veh, TP53 / RFU, TNKS2 / Fold change vs veh, TNKS2 / RFU, ZFP14 / Fold change vs veh, ZFP14 / RFU, ACTR2 / Fold change vs veh, ACTR2 / RFU, PPP3R1 / Fold change vs veh, PPP3R1 / RFU, PIK3R1 / Fold change vs veh, PIK3R1 / RFU, HNRNPA1 / Fold change vs veh, HNRNPA1 / RFU, RNF170 / Fold change vs veh, RNF170 / RFU, ZNF28 / Fold change vs veh, ZNF28 / RFU, RNGTT / Fold change vs veh, RNGTT / RFU, OGT / Fold change vs veh, OGT / RFU, BRD1 / Fold change vs veh, BRD1 / RFU, MARS / Fold change vs veh, MARS / RFU, ZNF655 / Fold change vs veh, ZNF655 / RFU, FAHD1 / Fold change vs veh, FAHD1 / RFU, BDP1 / Fold change vs veh, BDP1 / RFU, LRRCC1 / Fold change vs veh, LRRCC1 / RFU, ARID1A / Fold change vs veh, ARID1A / RFU, ZNF146 / Fold change vs veh, ZNF146 / RFU, ZNF330 / Fold change vs veh, ZNF330 / RFU, GPN3 / Fold change vs veh, GPN3 / RFU, C9orf123 / Fold change vs veh, C9orf123 / RFU, N4BP2L2 / Fold change vs veh, N4BP2L2 / RFU, ARFIP1 / Fold change vs veh, ARFIP1 / RFU, FAM179B / Fold change vs veh, FAM179B / RFU, BCL10 / Fold change vs veh, BCL10 / RFU, UHRF1BP1L / Fold change vs veh, UHRF1BP1L / RFU, BET1 / Fold change vs veh, BET1 / RFU, CNOT2 / Fold change vs veh, CNOT2 / RFU, ZNF268 / Fold change vs veh, ZNF268 / Fold change vs veh, ZNF507 / RFU, DGCR2 / Fold change vs veh, DGCR2 / RFU, WDSUB1 / Fold change vs veh, WDSUB1 / Fold change vs veh, HSP90B1 /// MIR3652 / RFU, ADSS / Fold change vs veh, ADSS / RFU, GK / Fold change vs veh, GK / RFU, ZNF148 / Fold change vs veh, ZNF148 / RFU, TAF9 / Fold change vs veh, TAF9 / RFU, SLC1A5 / Fold change vs veh, SLC1A5 / RFU, SLMO2 / Fold change vs veh, SLMO2 / RFU, ABCC4 / Fold change vs veh, ABCC4 / RFU, LOC101060439 /// RAP1B / Fold change vs veh, LOC101060439 /// RAP1B / RFU, RFX7 / Fold change vs veh, RFX7 / RFU, GTPBP10 / Fold change vs veh, GTPBP10 / RFU, CNEP1R1 / Fold change vs veh, CNEP1R1 / RFU, BIVM-ERCC5 /// ERCC5 / Fold change vs veh, BIVM-ERCC5 /// ERCC5 / RFU, ILF3 / Fold change vs veh, ILF3 / RFU 11762660_at / Fold change /veh 11762660_at / RFU VCAN (11757783_s_at) / Fold change /veh VCAN (11757783_s_at) / RFU DDX43 (11728927_at) / Fold change /veh DDX43 (11728927_at) / RFU KRT8 (11758188_x_at) / Fold change /veh KRT8 (11758188_x_at) / RFU NKD1 (11759106_at) / Fold change /veh NKD1 (11759106_at) / RFU SRD5A1 (11742802_a_at) / Fold change /veh SRD5A1 (11742802_a_at) / RFU TPSAB1 /// TPSB2 (11721975_s_at) / Fold change /veh TPSAB1 /// TPSB2 (11721975_s_at) / RFU GSTM3 (11746129_a_at) / Fold change /veh GSTM3 (11746129_a_at) / RFU IL23R (11737362_x_at) / Fold change /veh IL23R (11737362_x_at) / RFU TMEM51 (11727254_a_at) / Fold change /veh TMEM51 (11727254_a_at) / RFU PIWIL2 (11732686_x_at) / Fold change /veh PIWIL2 (11732686_x_at) / RFU ORM1 (11744905_x_at) / Fold change /veh ORM1 (11744905_x_at) / RFU CCDC152 (11743942_at) / Fold change /veh CCDC152 (11743942_at) / RFU ECM1 (11717891_a_at) / Fold change /veh ECM1 (11717891_a_at) / RFU IL23R (11748794_a_at) / Fold change /veh IL23R (11748794_a_at) / RFU TNFAIP8L3 (11732012_x_at) / Fold change /veh TNFAIP8L3 (11732012_x_at) / RFU MBOAT4 (11741988_at) / Fold change /veh MBOAT4 (11741988_at) / RFU 11764193_at / Fold change /veh 11764193_at / RFU TMEM53 (11763286_at) / Fold change /veh TMEM53 (11763286_at) / RFU MAGEB2 (11727129_at) / Fold change /veh MAGEB2 (11727129_at) / RFU TMEM200A (11744735_a_at) / Fold change /veh TMEM200A (11744735_a_at) / RFU CCDC152 (11751479_a_at) / Fold change /veh CCDC152 (11751479_a_at) / RFU FAM211A (11726209_a_at) / Fold change /veh FAM211A (11726209_a_at) / RFU RGS16 (11746705_a_at) / Fold change /veh RGS16 (11746705_a_at) / RFU VCAN (11755009_s_at) / Fold change /veh VCAN (11755009_s_at) / RFU RHOB (11743442_s_at) / Fold change /veh RHOB (11743442_s_at) / RFU RGS16 (11720943_a_at) / Fold change /veh RGS16 (11720943_a_at) / RFU RGS16 (11720944_at) / Fold change /veh RGS16 (11720944_at) / RFU, VPS4B / Fold change vs veh, VPS4B / RFU, CREB1 / Fold change vs veh, CREB1 / RFU, DNAJC13 / Fold change vs veh, DNAJC13 / RFU, GNAQ / Fold change vs veh, GNAQ / RFU, CDK5R1 / Fold change vs veh, CDK5R1 / RFU, ZRANB3 / Fold change vs veh, ZRANB3 / RFU, CUL4A / Fold change vs veh, CUL4A / RFU, CCNY / Fold change vs veh, CCNY / RFU, UFL1 / Fold change vs veh, UFL1 / RFU, COG3 / Fold change vs veh, COG3 / RFU, DIAPH2 / Fold change vs veh, DIAPH2 / RFU, SKA2 / Fold change vs veh, SKA2 / RFU, AFF3 / Fold change vs veh, AFF3 / RFU, LMF1 / Fold change vs veh, LMF1 / RFU, IPO11 / Fold change vs veh, IPO11 / RFU, DFFB / Fold change vs veh, DFFB / RFU, FOXP1 / Fold change vs veh, FOXP1 / RFU, CARD8 / Fold change vs veh, CARD8 / RFU, STRN3 / Fold change vs veh, STRN3 / RFU, ADK / Fold change vs veh, ADK / RFU, RASSF2 / Fold change vs veh, RASSF2 / RFU, WIPF1 / Fold change vs veh, WIPF1 / RFU, LARP1B / Fold change vs veh, LARP1B / RFU, RASA1 / Fold change vs veh, RASA1 / RFU, RB1 / Fold change vs veh, RB1 / RFU, PPFIA1 / Fold change vs veh, PPFIA1 / RFU, MAT2A / Fold change vs veh, MAT2A / RFU, CCT5 / Fold change vs veh, CCT5 / RFU, WDR92 / Fold change vs veh, WDR92 / RFU, CUX1 / Fold change vs veh, CUX1 / RFU, TTC7A / Fold change vs veh, TTC7A / RFU, TMEM135 / Fold change vs veh, TMEM135 / RFU, DEPTOR / Fold change vs veh, DEPTOR / RFU, CPM / Fold change vs veh, CPM / RFU, DNAJB6 / Fold change vs veh, DNAJB6 / RFU, CACNA2D3 / Fold change vs veh, CACNA2D3 / RFU, DTX4 / Fold change vs veh, DTX4 / RFU, TFCP2 / Fold change vs veh, TFCP2 / RFU, GMCL1 /// GMCL1P1 / Fold change vs veh, GMCL1 /// GMCL1P1 / RFU, AEBP2 / Fold change vs veh, AEBP2 / RFU, SNHG1 /// SNORD22 /// SNORD25 /// SNORD26 /// SNORD27 /// SNORD28 /// SNORD29 /// SNORD31 / Fold change vs veh, SNHG1 /// SNORD22 /// SNORD25 /// SNORD26 /// SNORD27 /// SNORD28 /// SNORD29 /// SNORD31 / Fold change (Aza/veh), C12orf56 (ProbeSet 11735607_a_at) / Fold change (ACY-1035/veh), C12orf56 (ProbeSet 11735607_a_at) / Fold change (Aza/veh), FGFR1OP (ProbeSet 11751329_s_at) / Fold change (ACY-1035/veh), FGFR1OP (ProbeSet 11751329_s_at) / Fold change (Aza/veh), VPS36 (ProbeSet 11739960_a_at) / Fold change (ACY-1035/veh), VPS36 (ProbeSet 11739960_a_at) / RFU SYPL1 (11715823_x_at) / Fold change /veh SYPL1 (11715823_x_at) / RFU IGFBP7 (11715501_s_at) / Fold change /veh IGFBP7 (11715501_s_at) / RFU REEP3 (11722064_at) / Fold change /veh REEP3 (11722064_at) / RFU IGLL1 (11728026_x_at) / Fold change /veh IGLL1 (11728026_x_at): dose or concentration left out as unconfirmed
Conditions: ProbeSet 11758397_s_at; LIST B

Structure (SMILES): Nc1ccc(-c2cccs2)cc1NC(=O)c1ccc2c(c1)cc(C1CC1)n2CCN1CCOCC1 [ACY-1035]
- Fold change vs veh, RNF170: 0.96
